# Reference: article PMC3041981 (ACS medicinal chemistry letters, 2010)
# Where two headings read alike, the source gives them in different places.
# Columns and labels:
# [1] = tested on: locomotor activity in mice; assay: Locomotor stimulant activity in mice; type: in vivo; settings: for Time course of locomotor stimulant effect after injection: 30-min period at the start of each of four hours after administration
# DAT = DAT (Rattus norvegicus, UniProt P23977); assay: DAT binding in rat brain membranes
# SERT = SERT (Rattus norvegicus, UniProt P31652); assay: SERT binding in rat brain membranes; settings: SERT versus DAT and NET binding
# SERT, sequence (P31652 whole entry): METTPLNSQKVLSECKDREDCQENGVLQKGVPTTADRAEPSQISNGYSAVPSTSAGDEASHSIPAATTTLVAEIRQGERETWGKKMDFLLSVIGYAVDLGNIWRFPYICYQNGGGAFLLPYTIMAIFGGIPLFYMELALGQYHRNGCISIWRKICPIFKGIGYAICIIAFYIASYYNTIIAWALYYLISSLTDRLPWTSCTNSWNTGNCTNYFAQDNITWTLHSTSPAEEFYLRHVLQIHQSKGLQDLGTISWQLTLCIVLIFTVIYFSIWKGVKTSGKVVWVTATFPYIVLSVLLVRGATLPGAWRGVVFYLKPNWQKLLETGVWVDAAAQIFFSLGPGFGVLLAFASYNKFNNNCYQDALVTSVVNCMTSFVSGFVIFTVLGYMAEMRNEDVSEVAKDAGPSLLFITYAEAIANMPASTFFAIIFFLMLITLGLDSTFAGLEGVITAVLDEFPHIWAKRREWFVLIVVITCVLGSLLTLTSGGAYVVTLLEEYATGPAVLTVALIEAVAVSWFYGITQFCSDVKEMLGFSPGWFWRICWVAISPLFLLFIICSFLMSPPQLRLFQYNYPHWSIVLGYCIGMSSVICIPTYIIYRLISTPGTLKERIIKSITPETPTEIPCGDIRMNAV
# DAT, sequence (P23977 whole entry): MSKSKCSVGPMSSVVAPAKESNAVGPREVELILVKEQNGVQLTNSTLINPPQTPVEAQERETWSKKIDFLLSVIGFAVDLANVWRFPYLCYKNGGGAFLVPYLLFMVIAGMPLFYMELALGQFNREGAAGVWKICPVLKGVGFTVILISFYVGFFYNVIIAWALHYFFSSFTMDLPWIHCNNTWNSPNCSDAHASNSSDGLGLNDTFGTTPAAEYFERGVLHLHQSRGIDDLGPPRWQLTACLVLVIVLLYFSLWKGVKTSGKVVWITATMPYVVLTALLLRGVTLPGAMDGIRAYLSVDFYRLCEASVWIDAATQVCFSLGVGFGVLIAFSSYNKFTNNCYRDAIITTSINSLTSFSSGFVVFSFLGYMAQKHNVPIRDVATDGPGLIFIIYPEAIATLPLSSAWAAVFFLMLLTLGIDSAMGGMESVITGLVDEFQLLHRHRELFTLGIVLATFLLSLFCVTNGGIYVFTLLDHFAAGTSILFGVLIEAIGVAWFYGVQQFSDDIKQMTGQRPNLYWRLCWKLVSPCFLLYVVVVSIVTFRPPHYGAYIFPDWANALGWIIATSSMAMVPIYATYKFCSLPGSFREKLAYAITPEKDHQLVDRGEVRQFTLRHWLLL
structure (smiles),measurement,setting,value
"NC(=O)C[S+]([O-])C(c1ccccc1)c1ccccc1 (racemic) [(±)-1, 2-[(diphenylmethyl)sulfinyl]acetamide]",Time course of locomotor stimulant effect after injection,[1],evident up to four hours after injection
[O-][S+](CCNCCCc1ccccc1)C(c1ccccc1)c1ccccc1 (stereo not shown) [9a],"DAT binding affinity, comparison in words",DAT,most potent DAT analogue in the series
CN(C)CC[S+]([O-])C(c1ccc(Cl)cc1)c1ccc(Cl)cc1 (stereo not shown) [9d],Transporter selectivity in words,SERT,SERT-selective
NC(=O)C[S@+]([O-])C(c1ccccc1)c1ccccc1 [(+)-1],Time course of locomotor stimulant effect after injection,[1],evident up to four hours after injection
NC(=O)C[S@@+]([O-])C(c1ccccc1)c1ccccc1 [(−)-1],Time course of locomotor stimulant effect after injection,[1],evident up to four hours after injection
same,"DAT binding affinity, comparison in words","DAT; rat brain membranes, within the series",slightly higher affinity than the S
COC(=O)[C@H]1[C@@H](OC(=O)c2ccccc2)C[C@@H]2CC[C@H]1N2C [cocaine],Effect on locomotor activity (horizontal activity counts),"[1]; after injection, 6 mice per point, maximal effect compared with cocaine",greatest among the drugs
